Values of other authors, collected in US20220193002A1, “PROCESS FOR THE PREPARATION OF BAKUCHIOL COMPOSITION SUBSTANTIALLY FREE OF FURANOCOUMARIN IMPURITIES” (K V Natural Ingredients PVT LTD, priority 2020, published 2022).

System: S. mutans
Conditions: cell growth inhibited in a concentration dependent manner; complete prevention of growth

## C=C[C@@](C)(/C=C/c1ccc(O)cc1)CCC=C(C)C [bakuchiol, 4-[(1E,3S)-3-ethenyl-3,7-dimethylocta-1,6-dienyl]phenol]
  concentration at which the growth of S. mutans was completely prevented: 20 µg/mL
